Experimental data reported in patent US5672585A, “Method and composition for treating thrombosis” (priority 1995, dated 1997).
pIC50: −log10 of the molar value.

Experiments:
[1] = tested on: platelets; assay: Ex vivo platelet aggregation in dogs (Example XII H); conditions: dog, 10 μg/mL collagen as agonist
Procedure: More importantly, several peptides in FIG. 23 were administered to dogs (according to the method of Example VII) at doses capable of inhibiting ex vivo platelet aggregation by >95%.
The bleeding time indicated in the parentheses was measured at a five-fold higher concentration of peptide. […]

[2] = target: GP IIb/IIIa (Homo sapiens, UniProt P05106+P08514); assay: Inhibition of ligand binding to GP IIb/IIIa; conditions: fibrinogen versus fibronectin and vitronectin
[3] = tested on: human platelets; assay: Human platelet aggregation, modified assay (Table II); type: cell-based; conditions: human PRP, citrate; aggregating agent collagen, U46619 or ADP
Procedure: In an independent study, a slightly modified aggregation assay was used. Platelet aggregation assays were performed in human platelet rich plasma (PRP). […] The blood was centrifuged at 160×g for 10 minutes at 22° C. and allowed to stand for 5 minutes after which the PRP was decanted. Platelet poor plasma (PPP) was isolated from the remaining blood after centrifugation at 2000×g for 25 minutes. The platelet count of the PRP was diluted to about 300,000 platelets per microliter with PPP.
A 225 μl aliquot of PRP plus 25 μl of either a dilution of the test inhibitor sample or a control (PBS) was incubated for 5 minutes in a Chrono-log Whole Blood Aggregometer at 37° C. An aggregating agent (collagen, 1 μg/ml; U46619, 100 ng/ml; or ADP, 17μM) was added and the transmission was recorded.

[4] = tested on: platelets; assay: ADP-stimulated platelet aggregation in platelet-rich plasma (Table I); conditions: read-out: ADP-Stimulated Aggregation; ADP 10 μm, citrated platelet-rich plasma, 37° C.; * concentrations unconfirmed by amino acid composition analysis
Procedure: (§2) Briefly, the change in light transmission was measured through a stirred suspension of platelets in an aggregometer (Model 400 VS, Chrono-Log, Hayertown, Pa., USA). […] In studies using thrombin, the PRP was gel-filtered on Sepharose 2B in divalent ion-free Tyrode's solution containing 2% BSA. For all studies, the reference standard was platelet-poor plasma, which was obtained by centrifuging PRP at 1000×g for 5 min.
(§3) All aggregation studies were performed at 37° C. with a constantly stirred suspension of 3×10^8 platelets/ml. (Platelet count was determined with the aid of a hemacytometer.) Peptides and stimulants were added to these suspensions in 1% dilutions. The PRP and gel-filtered platelets were used within three hours from the time of blood collection.
(§4) Peptide anti-aggregation potencies were determined from dose-responsive curves for the inhibition of the maximum aggregation responses stimulated by physiologic doses of ADP (10 μm) and thrombin (2 U/ml).

[5] = tested on: canine platelets; assay: Canine platelet aggregation in vitro (ADP, arachidonic acid, collagen); type: cell-based, dog; conditions: stimulated by 10 μm ADP, […] arachidonic acid or 9.6 micrograms/ml collagen; read-out: IC50 against canine platelet aggregation
[6] = tested on: coronary thrombosis; assay: Electrically induced canine coronary thrombosis, time to full occlusion; type: in vivo; conditions: dog
Procedure: Male mongrel dogs weighing 14 to 20 kg were selected based on proper aggregation of their platelets in response to arachidonic acid, collagen, and adenosine disphosphate (ADP) and based on similar weights and hemodynamic properties.
Before surgery, the animals were anesthetized with sodium pentobarbital (30 mg/kg, i.v.) and then intubated and ventilated on room air with positive pressure using a respirator (Harvard Apparatus, S. Natick, Mass.) at a volume of 30 ml/kg and a frequency of 12 breaths/min. Surgery, performed under aseptic conditions, was begun with the placement of cannulae into the left carotid artery and jugular vein for monitoring arterial blood pressure (Statham P23 pressure transducer, Gould, Inc., Cardiovascular Products, Oxnard, CA) and administering intravenous fluids.
The heart was exposed via a left thoracotomy through the 5th intercostal space. A 2-cm segment of the left circumflex coronary artery (LCCA) was isolated from surrounding tissue by blunt dissection. […] The intra-coronary electrode was constructed by attaching a 25-gauge hypodermic needle tip to a 30-gauge Teflon-insulated silver-coated copper wire. The mechanical occluder was constructed of stainless steel in a C shape with a Teflon screw (2 mm diameter) on top. It was adjusted to control vessel circumference and decrease the reactive hyperemic flow due to a 10-sec (full) occlusion by 50-70% without affecting basal coronary blood flow (FIG. 1C). A monopolar epicardial electrode was sutured to the surface of the ventricle in the region of LCCA distribution to monitor ischemic changes in the electrocardiogram (ECG). The left atrium was cannulated with polythylene tubing for administration of the peptide. Continuous recordings of blood pressure, limb lead II ECG, epicardial electrogram, and mean and phasic LCCA blood flow were obtained on a Model 7 polygraph (Grass Instrument Co., Quincy, Mass.).
One hour after the completion of surgery, a 100 micro-amp continuous anodal direct current delivered from a 9 volt nickel-cadmium battery was applied to the intimal surface of the LCCA. The anode of the battery was in series with a 250,000 ohm potentiometer and the intraluminal coronary artery electrode. The electric circuit was completed by placing the cathode in a subcutaneous site. Electrical stimulation was applied for three hours. At the conclusion of each experiment, the heart was fibrillated electrically and quickly removed, and the LCCA was dissected free as far as possible to verify the position of the implanted anodal electrode.
(§1) Animals were randomly assigned to two treatment groups: vehicle control (i.e., normal saline) or RGD peptides at various concentrations. Peptides were administered intra-atrially in both bolus and continuous injections. Each bolus injection consisted of 0.5 to 10 mg/kg and was administered 15 minutes before application of the current. A continuous infusion of the same peptide was then started immediately after completion of this initial injection. Animals received a 25 μg/kg/min to 200 μg/kg/min infusion. The anti-thrombotic effects of the peptides were monitored until 30 minutes after the occurrence of a persistent, occlusive thrombus or five hours after the initiation of electrical stimulation (whichever resulted first). If an occlusive thrombus had not developed within four hours after the initiation of current, the peptide infusion was stopped.
Coronary thrombosis was quantified as the time to full occlusion. The effects of the various peptide treatments on coronary thrombosis is illustrated in FIG. 4.

[7] = tested on: platelets; assay: Ex vivo platelet aggregation in the canine coronary thrombosis study; conditions: dog
Procedure: For all ex vivo studies (see FIGS. 3A, 3B1, 3B2, 3B3, 3C1 and 3C2), control aggregation values were standardized to the percentages of light transmission observed in PRP and PPP samples (0% and 100%, respectively).
as §1
Platelet counts and ex vivo aggregation studies were performed one hour before and 1, 3, and 5 hours after application of anodal direct current.
Platelet aggregation was also determined ex vivo at one, three, and five hours after current application. For these studies, arachidonic acid, or collagen was again used to stimulate the platelets.

[8] = tested on: platelets; assay: Thrombin-stimulated platelet aggregation (Table I); conditions: read-out: Thrombin Stimulated Aggregation; thrombin 2 U/ml, gel-filtered platelets, 37° C.
Procedure: as §2, §3, §4

[9] = Peripheral blood flow (PBF), laser dopler flow probe, rabbit ear; type: in vivo; conditions: time 10 min, bolus dose as listed per peptide
Procedure: Unanesthetized male New Zealand White rabbits (2.5-3.5 kg) were placed in a standard rabbit restrainer. Ears were shaved and a 20G teflon catheter with flowswitch (Viggo) was placed in the medial artery, flushed with saline and locked with 1 ml of heparinized saline ([…]). A 22G catheter (Abbott) fitted with an injection cap (Medex) was placed in the marginal vein of the same ear. Saline or a GP IIb IIIa receptor antagonist, at a concentration of 1 to 3 mg/ml, was infused via the venous catheter. At time 0, 41% of the dose was given as a bolus over 2 minutes. The remainder was continuously infused over the following 60 minutes. Blood samples (3.2 ml) were collected into syringes without needles via the arterial catheter at -10, -5, 10, 45 and 60 minutes. […] The sample was divided into 1.5 ml aliquots and centrifuged at room temperature for 5 seconds at 12,000 G. The resulting platelet rich plasma (PRP) is used to measure ex-vivo platelet aggregation (XPA). […]
In an alternative series of experiments, (Table 2) PBF was measured quantitatively with a laser dopler flow probe (Perimed). The probe was positioned securely over the vascular bed of one ear and flow monitored continuously. Each inhibitor was infused and CBT measured in the opposing ear. No arterial catheter was placed for blood sampling, consequently XPA […] in these animals. […]

Sequence of GP IIb/IIIa (P08514 32-887 limits assumed): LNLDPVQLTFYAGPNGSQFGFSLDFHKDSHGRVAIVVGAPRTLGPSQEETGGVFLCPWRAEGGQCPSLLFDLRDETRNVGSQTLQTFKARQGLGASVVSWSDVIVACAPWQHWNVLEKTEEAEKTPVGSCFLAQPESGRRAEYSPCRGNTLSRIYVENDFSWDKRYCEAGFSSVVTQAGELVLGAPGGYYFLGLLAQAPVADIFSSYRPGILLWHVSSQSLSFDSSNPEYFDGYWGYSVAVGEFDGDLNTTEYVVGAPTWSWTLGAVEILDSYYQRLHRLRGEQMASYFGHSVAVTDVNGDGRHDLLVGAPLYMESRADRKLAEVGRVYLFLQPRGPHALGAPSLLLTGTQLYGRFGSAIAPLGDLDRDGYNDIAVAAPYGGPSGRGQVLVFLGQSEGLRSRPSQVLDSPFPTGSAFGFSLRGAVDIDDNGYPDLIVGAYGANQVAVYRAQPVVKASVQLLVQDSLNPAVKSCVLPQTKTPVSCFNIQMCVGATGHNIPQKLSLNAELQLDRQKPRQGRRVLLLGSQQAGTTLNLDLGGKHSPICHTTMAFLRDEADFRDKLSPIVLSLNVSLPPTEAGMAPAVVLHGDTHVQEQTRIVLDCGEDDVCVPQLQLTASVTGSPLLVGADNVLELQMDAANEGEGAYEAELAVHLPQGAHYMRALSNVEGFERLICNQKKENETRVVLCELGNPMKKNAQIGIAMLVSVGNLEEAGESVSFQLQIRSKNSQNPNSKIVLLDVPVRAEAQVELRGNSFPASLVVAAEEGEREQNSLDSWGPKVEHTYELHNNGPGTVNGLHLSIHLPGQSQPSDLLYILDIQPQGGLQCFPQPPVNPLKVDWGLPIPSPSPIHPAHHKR
Sequence of GP IIb/IIIa (P08514 891-1039 partner limits assumed): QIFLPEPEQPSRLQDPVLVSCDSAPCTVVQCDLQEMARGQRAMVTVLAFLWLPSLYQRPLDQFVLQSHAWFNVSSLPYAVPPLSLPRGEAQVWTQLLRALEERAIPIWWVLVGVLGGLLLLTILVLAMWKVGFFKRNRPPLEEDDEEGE
Sequence of GP IIb/IIIa (P05106 27-788): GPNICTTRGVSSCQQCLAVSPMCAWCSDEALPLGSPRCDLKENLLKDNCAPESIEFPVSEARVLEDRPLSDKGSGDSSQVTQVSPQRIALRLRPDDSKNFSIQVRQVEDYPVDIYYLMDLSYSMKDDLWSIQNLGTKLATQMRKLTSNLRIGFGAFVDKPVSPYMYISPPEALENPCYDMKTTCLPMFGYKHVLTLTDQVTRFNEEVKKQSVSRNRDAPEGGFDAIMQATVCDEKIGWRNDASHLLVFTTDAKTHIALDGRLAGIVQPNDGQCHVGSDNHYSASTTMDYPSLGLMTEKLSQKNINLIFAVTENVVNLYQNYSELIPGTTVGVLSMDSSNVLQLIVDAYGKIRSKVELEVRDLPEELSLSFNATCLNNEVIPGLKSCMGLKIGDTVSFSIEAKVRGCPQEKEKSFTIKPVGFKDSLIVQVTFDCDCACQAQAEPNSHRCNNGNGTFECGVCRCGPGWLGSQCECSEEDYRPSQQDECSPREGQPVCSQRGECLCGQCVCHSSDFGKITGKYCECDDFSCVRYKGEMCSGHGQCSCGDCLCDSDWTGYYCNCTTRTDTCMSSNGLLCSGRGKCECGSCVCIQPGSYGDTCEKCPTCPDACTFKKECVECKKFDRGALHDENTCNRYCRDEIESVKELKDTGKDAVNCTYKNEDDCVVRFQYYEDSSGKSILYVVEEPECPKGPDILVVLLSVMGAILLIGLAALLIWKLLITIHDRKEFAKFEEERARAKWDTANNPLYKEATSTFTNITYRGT

Substance | ex vivo platelet aggregation inhibited [1] [%] | differential inhibition of ligand binding to GP IIb/IIIa [2] | IC50 [3] [µM] | pIC50 [4] | pIC50 [5] | coronary thrombosis, time to full occlusion ([6]; 5 mg/kg) | thrombus formation ([6]; 5 mg/kg, circulating platelet levels one-third of normal) | coronary thrombosis, time to full occlusion ([6]; 10 mg/kg) | ex vivo platelet activation by collagen ([7]; 5 mg/kg injection) | ex vivo platelet response to ADP and AA ([7]; 5 mg/kg injection, all three time points) | ex vivo platelet aggregation by ADP, AA and collagen ([7]; 10 mg/kg injection) | ex vivo platelet responsiveness ([7]; 10 mg/kg, five-hour point) | pIC50 [8] | PBF (units) [9] [units]
Ac-CNPRGD(O-Me-Y)RCNH2 [Peptide 8X] | > 95 | inhibits the binding of fibrinogen to GP IIb/IIIa more than it inhibits the binding of fibronectin and vitronectin to the same integrin |  |  |  |  |  |  |  |  |  |  |  | 
R(Pen)GHRGDWRCR [Peptide 4Q] |  |  | 3.3 | 5.89 | 5.30 to 5.82 | significantly prolonged the time to occlusion | able to prevent thrombus formation | completely prevented occlusion for the full five-hour experimental period | near-maximal inhibition | completely unresponsive | prevented platelet aggregation by all three stimuli at one- and three-hour time points | platelet responsiveness was slightly improved | 5.92 | 9
